Experimental data reported in patent publication EP0025288A1, “Derivatives of monic acid, processes for their preparation, compositions containing them and their preparation” (priority 1979, dated 1981).

Key:
[1] = test system: E coli NCTC 10418; assay: MIC, human bacteria, serial dilution in nutrient agar; format: cell-based; settings: nutrient agar containing 5% 'chocolated' horse blood
[2] = test system: E coli ESS; assay: as above; format: cell-based; settings: nutrient agar containing 5% 'chocolated' horse blood
[3] = test system: P mirabilis 889; assay: as above; format: cell-based; settings: nutrient agar containing 5% 'chocolated' horse blood
[4] = test system: K aerogenes A; assay: as above; format: cell-based; settings: nutrient agar containing 5% 'chocolated' horse blood
[5] = test system: Ps aeruginosa 10662; assay: as above; format: cell-based; settings: nutrient agar containing 5% 'chocolated' horse blood
[6] = test system: Pasteurella multocida 1633; assay: as above; format: cell-based; settings: nutrient agar containing 5% 'chocolated' horse blood
[7] = test system: Haemophilus influenzae Wy21; assay: as above; format: cell-based; settings: nutrient agar containing 5% 'chocolated' horse blood
[8] = test system: Neisseria catarrhalis 1502; assay: as above; format: cell-based; settings: Neisseria catarrhalis 1502 (footnote a); nutrient agar containing 5% 'chocolated' horse blood
[9] = test system: Bacillus subtilis 6633; assay: as above; format: cell-based; settings: nutrient agar containing 5% 'chocolated' horse blood
[10] = test system: Corynebacterium zerosis 9755; assay: as above; format: cell-based; settings: nutrient agar containing 5% 'chocolated' horse blood
[11] = test system: Sercina lutea 8340; assay: as above; format: cell-based; settings: nutrient agar containing 5% 'chocolated' horse blood
[12] = test system: Staph aureus Oxford; assay: as above; format: cell-based; settings: nutrient agar containing 5% 'chocolated' horse blood
[13] = test system: Staph aureus Russell; assay: as above; format: cell-based; settings: nutrient agar containing 5% 'chocolated' horse blood
[14] = test system: Staph aureus W2827; assay: as above; format: cell-based; settings: nutrient agar containing 5% 'chocolated' horse blood
[15] = test system: Strep faecalis I; assay: as above; format: cell-based; settings: nutrient agar containing 5% 'chocolated' horse blood
[16] = test system: Strep pyogenes A 64/848; assay: as above; format: cell-based; settings: nutrient agar containing 5% 'chocolated' horse blood
[17] = test system: Strep pyogenes B 2788; assay: as above; format: cell-based; settings: nutrient agar containing 5% 'chocolated' horse blood
[18] = test system: Strep pyogenes C 2761; assay: as above; format: cell-based; settings: nutrient agar containing 5% 'chocolated' horse blood
[19] = test system: E coli NCTC 10418; assay: MIC, veterinary bacteria; format: cell-based; settings: veterinary bacteria (Table 2)
[20] = test system: E coli E1; assay: MIC, veterinary bacteria; format: cell-based; settings: veterinary bacteria (Table 2)
[21] = test system: S dublin S7; assay: MIC, veterinary bacteria; format: cell-based; settings: veterinary bacteria (Table 2)
[22] = test system: S typhimurium S18; assay: MIC, veterinary bacteria; format: cell-based; settings: veterinary bacteria (Table 2)
[23] = test system: Bord bronchiseptica BO8; assay: MIC, veterinary bacteria; format: cell-based; settings: veterinary bacteria (Table 2)
[24] = test system: Bord bronchisptica BO9; assay: MIC, veterinary bacteria; format: cell-based; settings: veterinary bacteria (Table 2)
[25] = test system: Past multocida PA1; assay: MIC, veterinary bacteria; format: cell-based; settings: veterinary bacteria (Table 2)
[26] = test system: Past multocida PA2; assay: MIC, veterinary bacteria; format: cell-based; settings: veterinary bacteria (Table 2)
[27] = test system: Past Haemolytica PA5; assay: MIC, veterinary bacteria; format: cell-based; settings: veterinary bacteria (Table 2)
[28] = test system: Erysipelothrix rhusiopathiae NCTC 8163; assay: MIC, veterinary bacteria; format: cell-based; settings: veterinary bacteria (Table 2)
[29] = test system: Corynebacterium pyogenes CY1; assay: MIC, veterinary bacteria; format: cell-based; settings: veterinary bacteria (Table 2)
[30] = test system: Staph aureus B4 (pen resis); assay: MIC, veterinary bacteria; format: cell-based; settings: veterinary bacteria (Table 2)
[31] = test system: Staph aureus 152 (pen sens); assay: MIC, veterinary bacteria; format: cell-based; settings: veterinary bacteria (Table 2)
[32] = test system: Staph aureus Oxford; assay: MIC, veterinary bacteria; format: cell-based; settings: veterinary bacteria (Table 2)
[33] = test system: Strep suis (group D) SPS11; assay: MIC, veterinary bacteria; format: cell-based; settings: veterinary bacteria (Table 2)
[34] = test system: Strep uberis SPU1; assay: MIC, veterinary bacteria; format: cell-based; settings: veterinary bacteria (Table 2)
[35] = test system: Strep dysgalaciae SPD1; assay: MIC, veterinary bacteria; format: cell-based; settings: veterinary bacteria (Table 2)
[36] = test system: Strep agalactiae SPA1; assay: MIC, veterinary bacteria; format: cell-based; settings: veterinary bacteria (Table 2)
[37] = test system: M. suipneumoniae NB12; assay: MIC, anti-mycoplasmal, Friis broth solidified with 0.9% agarose; format: cell-based; settings: inoculum 10^3 to 10^5 C.F.U., 6 days incubation at 37°C
[38] = test system: M. suipneumoniae JF 435; assay: as above; format: cell-based; settings: inoculum 10^3 to 10^5 C.F.U., 6 days incubation at 37°C
[39] = test system: M. suipneumoniae HK(2); assay: as above; format: cell-based; settings: inoculum 10^3 to 10^5 C.F.U., 6 days incubation at 37°C
[40] = test system: M. suipneumoniae Str. 11; assay: as above; format: cell-based; settings: inoculum 10^3 to 10^5 C.F.U., 6 days incubation at 37°C
[41] = test system: M. suipneumoniae J2206/183b; assay: as above; format: cell-based; settings: inoculum 10^3 to 10^5 C.F.U., 6 days incubation at 37°C
[42] = test system: M. suipneumoniae MS 16; assay: as above; format: cell-based; settings: inoculum 10^3 to 10^5 C.F.U., 6 days incubation at 37°C
[43] = test system: M. suipneumoniae PW/C/210; assay: as above; format: cell-based; settings: inoculum 10^3 to 10^5 C.F.U., 6 days incubation at 37°C
[44] = test system: M. suipneumoniae LABER; assay: as above; format: cell-based; settings: inoculum 10^3 to 10^5 C.F.U., 6 days incubation at 37°C
[45] = test system: M. suipneumoniae UCD 1; assay: as above; format: cell-based; settings: inoculum 10^3 to 10^5 C.F.U., 6 days incubation at 37°C
[46] = test system: M. suipneumoniae TAM 6N; assay: as above; format: cell-based; settings: inoculum 10^3 to 10^5 C.F.U., 6 days incubation at 37°C
[47] = test system: M. suipneumoniae ATCC 25095; assay: as above; format: cell-based; settings: inoculum 10^3 to 10^5 C.F.U., 6 days incubation at 37°C
[48] = test system: M. suipneumoniae NCTC 10110; assay: as above; format: cell-based; settings: inoculum 10^3 to 10^5 C.F.U., 6 days incubation at 37°C
[49] = test system: M. hyorhinis ATCC 23234; assay: as above; format: cell-based; settings: inoculum 10^3 to 10^5 C.F.U., 6 days incubation at 37°C
[50] = test system: M. hyorhinis ATCC 25021; assay: as above; format: cell-based; settings: inoculum 10^3 to 10^5 C.F.U., 6 days incubation at 37°C
[51] = test system: M. hyosynoviae ATCC 25591; assay: as above; format: cell-based; settings: inoculum 10^3 to 10^5 C.F.U., 6 days incubation at 37°C
[52] = test system: M. bovis NCTC 10131; assay: microbe, parasite or virus in culture; format: cell-based; settings: M. bovis NCTC 10131; inoculum 10^3 to 10^5 C.F.U., 6 days incubation at 37°C
[53] = test system: M. bovigenitalium ATCC 14173; assay: MIC, anti-mycoplasmal, Friis broth solidified with 0.9% agarose; format: cell-based; settings: inoculum 10^3 to 10^5 C.F.U., 6 days incubation at 37°C
[54] = test system: M. dispar NCTC 10125; assay: as above; format: cell-based; settings: inoculum 10^3 to 10^5 C.F.U., 6 days incubation at 37°C
[55] = test system: M. gallisepticum S6; assay: as above; format: cell-based; settings: inoculum 10^3 to 10^5 C.F.U., 6 days incubation at 37°C
[56] = test system: M. pneumoniae ATCC 15492; assay: as above; format: cell-based; settings: inoculum 10^3 to 10^5 C.F.U., 6 days incubation at 37°C
[57] = test system: pig serum; assay: Serum binding by ultrafiltration; format: in vitro ADME; settings: compounds at 8 mcg/ml, microbiological assay (B. subtilis ATCC 6633)
Procedure: Serum binding was assessed by ultrafiltration of procine serum containing compounds at 8 mcg/ml, and through an Amicon CF50A ultrafiltration cone. Separation of ultrafiltrate was achieved by centrifugation.

C^yclopentan-2-onyl monate A [Example 6]
MIC [1]: >100 µm/ml | MIC [2]: 2.5 µm/ml | MIC [3]: 100 µm/ml | MIC [4]: >100 µm/ml | MIC [5]: >100 µm/ml | MIC [6]: 1.0 µm/ml | MIC [7]: 0.5 µm/ml | MIC [8]: ^a1.0 µm/ml | MIC [9]: 2.5 µm/ml | MIC [10]: >100 µm/ml | MIC [11]: >100 µm/ml | MIC [12]: 2.5 µm/ml | MIC [13]: 5.0 µm/ml | MIC [14]: 5.0 µm/ml | MIC [15]: >100 µm/ml | MIC [16]: 2.5 µm/ml | MIC [17]: 5.0 µm/ml | MIC [18]: 5.0 µm/ml | MIC [19]: >80 µg/mL | MIC [20]: >80 µg/mL | MIC [21]: >80 µg/mL | MIC [22]: >80 µg/mL | MIC [23]: 80 µg/mL | MIC [24]: 20 µg/mL | MIC [25]: .625 µg/mL | MIC [26]: .312 µg/mL | MIC [27]: 5 µg/mL | MIC [28]: >80 µg/mL | MIC [29]: >80 µg/mL | MIC [30]: 2.5 µg/mL | MIC [31]: 2.5 µg/mL | MIC [32]: 2.5 µg/mL | MIC [33]: 20 µg/mL | MIC [34]: 1.25 µg/mL | MIC [35]: 1.25 µg/mL | MIC [36]: 2.5 µg/mL | in vitro MIC [37]: 2.5 µg/mL | in vitro MIC [38]: 10 µg/mL | in vitro MIC [39]: 10 µg/mL | in vitro MIC [40]: 2.5 µg/mL | in vitro MIC [41]: 10 µg/mL | in vitro MIC [42]: 2.5 µg/mL | in vitro MIC [43]: 2.5 µg/mL | in vitro MIC [44]: 2.5 µg/mL | in vitro MIC [45]: 10 µg/mL | in vitro MIC [46]: 5.0 µg/mL | in vitro MIC [47]: 5.0 µg/mL | in vitro MIC [48]: 10 µg/mL | in vitro MIC [49]: 2.5 µg/mL | in vitro MIC [50]: 2.5 µg/mL | in vitro MIC [51]: 2.5 µg/mL | in vitro MIC [52]: 0.25 µg/mL | in vitro MIC [53]: 0.25 µg/mL | in vitro MIC [54]: 0.5 µg/mL | in vitro MIC [55]: >10 µg/mL | in vitro MIC [56]: 10 µg/mL | % bound to pig serum [57]: 35.6%
